Results as given in publication PMC7179312 (Antimicrobial Agents and Chemotherapy, 2020).

What was measured:
[1] = system: P. aeruginosa PAM1154 carrying KPC-2::D179Y (PAM4639); assay: Checkerboard potentiation of antibiotic activity by BLIs; assay type: cell-based, Pseudomonas aeruginosa; conditions: for Beta-lactam MIC in the presence of BLI: PAM4639 KPC-2 D179Y
From the text: (§1) BLI potency was defined as PV50 (PV, potentiation value) of antibiotic potentiation. PV50 is the concentration of a BLI that is required to reduce the antibiotic MIC to the middle of the MIC range where the highest MIC is the MIC for a KPC-producing strain with no inhibitor added and the lowest MIC is the MIC for the vector-alone strain, which corresponds to complete inhibition of KPC. As a given MIC is directly related to the β-lactamase activity, PV50 might be considered the concentration of a BLI that is required to achieve half-effect of inhibition of β-lactamase activity (in whole cells) to hydrolyze an antibiotic of interest. […] However, the accurate determination of PV50 requires the MIC range to be relatively wide.
(§2) For microbiological studies, wild-type blaKPC-2 and its mutant variants were cloned into the shuttle vector pUCP24. Resulting plasmids were transformed in the efflux-deficient strain of P. aeruginosa PAM1154 using selection on 15 μg/ml of gentamicin. Using a strain of P. aeruginosa as opposed to E. coli as a host for various cloned genes was based on the following consideration. As well documented elsewhere ([41]), P. aeruginosa has a low-permeability outer membrane; consequently, the effect of β-lactamases on MIC is amplified in P. aeruginosa compared to that in E. coli due to the slowed uptake of β-lactams. Thus, this host is appropriate to detect β-lactamase activity (as an MIC increase) of low-catalytic-efficiency enzymes that rely heavily on low permeability of the outer membrane. […] MICs were determined using the Clinical and Laboratory Standards Institute (CLSI) broth microdilution method as described in CLSI document M07-A11 ([42]). […] BLI potency was defined as PV50 (PV, potentiation value). PV50 is the minimal concentration of a BLI that is required to reduce the antibiotic MIC to the middle of the MIC range (E50) where the highest MIC is the MIC for a KPC-producing strain with no inhibitor added and the lowest MIC is the MIC for the vector-only strain, corresponding to the complete inhibition of KPC. E50 is calculated as the square root of the product of the antibiotic MICs for the KPC-producing and the vector-only strains.
(§3) […]
(§4) […]

[2] = system: P. aeruginosa PAM1154 carrying KPC-2::L169P (PAM4751); assay: as above; assay type: cell-based, Pseudomonas aeruginosa; conditions: for Beta-lactam MIC in the presence of BLI: PAM4751 KPC-2 L169P
From the text: as §1, §2, §3, §4

[3] = system: P. aeruginosa PAM1154 carrying wild-type KPC-2 (PAM4135); assay: as above; assay type: cell-based, Pseudomonas aeruginosa; conditions: PAM4135 KPC-2
From the text: as §1, §2, §3, §4

[4] = system: P. aeruginosa PAM1154 carrying pUCP24-KPC-2 (PAM4135); assay: MIC, CLSI broth microdilution; assay type: cell-based; conditions: Pseudomonas aeruginosa; PAM4135, pUCP24-KPC-2; drug alone
From the text: (§5) The effects of KPC mutations on resistance to various antibiotics were investigated. For these studies, pUCP24 plasmids carrying wild-type and mutant blaKPC-2 genes as well as the pUCP24 vector were transformed into PAM1154, an efflux-deficient strain of Pseudomonas aeruginosa. In this host, the effect of β-lactamases on β-lactam MIC is amplified due to the slowed uptake of β-lactams across the low-permeability outer membrane without interference by efflux of either β-lactams or BLIs. Consequently, this host allows detection of β-lactamase activity (as an MIC increase) of low-catalytic-efficiency enzymes that rely heavily on the low permeability of the outer membrane. Using the strain that lacks efflux pumps ensures no interference from efflux in interpreting results. We next evaluated the steady-state protein expression levels in bacterial cells.
as §2

[5] = system: P. aeruginosa PAM1154 carrying pUCP24-KPC-2::L169P (PAM4751); assay: MIC, CLSI broth microdilution; assay type: cell-based, Pseudomonas aeruginosa; conditions: for MIC: Pseudomonas aeruginosa, PAM4751, pUCP24-KPC-2::L169P, drug alone
From the text: as §5, §2

[6] = system: P. aeruginosa PAM1154 carrying pUCP24-KPC-2::D179Y (PAM4639); assay: MIC, CLSI broth microdilution; assay type: cell-based, Pseudomonas aeruginosa; conditions: for MIC: Pseudomonas aeruginosa, PAM4639, pUCP24-KPC-2::D179Y, drug alone
From the text: as §5, §2

SMILES: O=C(O)C[C@@H]1CC[C@H](NC(=O)Cc2cccs2)B(O)O1 [Vaborbactam, vaborbactam]
- PV50 ([1]; PAM4639 KPC-2::D179Y, potentiation of cefepime): 1 µg/mL
- PV50 ([1]; PAM4639 KPC-2::D179Y, potentiation of ceftazidime): 1 µg/mL
- PV50 ([1]; PAM4639 KPC-2::D179Y, potentiation of piperacillin): 1 µg/mL
- reduction of potency to enhance ceftazidime, cefepime or piperacillin vs wild-type KPC-2 ([2]; L169P, depending on the antibiotic): no more than 2 fold
- PV50 ([2]; PAM4751 KPC-2::L169P, potentiation of cefepime): 1 µg/mL
- PV50 ([2]; PAM4751 KPC-2::L169P, potentiation of ceftazidime): 1 µg/mL
- PV50 ([2]; PAM4751 KPC-2::L169P, potentiation of piperacillin): 1 µg/mL
- PV50 ([3]; potentiation of cefepime): 0.5 µg/mL
- PV50 ([3]; potentiation of ceftazidime): 0.5 µg/mL
- PV50 ([3]; potentiation of piperacillin): 1 µg/mL
- MIC [4]: > 256 µg/mL
- MIC [5]: > 256 µg/mL
- MIC [6]: > 256 µg/mL

SMILES: CO/N=C(\C(=O)N[C@@H]1C(=O)N2C(C(=O)[O-])=C(C[N+]3(C)CCCC3)CS[C@H]12)c1csc(N)n1 [Cefepime, cefepime]
- Antibiotic MIC with avibactam at 4 μg/ml ([1]; PAM4639 KPC-2::D179Y, avibactam 4 μg/ml): 2 µg/mL
- Antibiotic MIC, No BLI ([1]; PAM4639 KPC-2::D179Y, no BLI): 32 µg/mL
- Antibiotic MIC with vaborbactam at 8 μg/ml ([1]; PAM4639 KPC-2::D179Y, vaborbactam 8 μg/ml): 0.25 µg/mL
- Beta-lactam MIC in the presence of BLI ([1]; avibactam 0 µg/ml): 32 µg/mL
- Beta-lactam MIC in the presence of BLI ([1]; avibactam 0.008 µg/ml): 32 µg/mL
- Beta-lactam MIC in the presence of BLI ([1]; avibactam 0.031 µg/ml): 32 µg/mL
- Beta-lactam MIC in the presence of BLI ([1]; avibactam 0.06 µg/ml): 32 µg/mL
- Beta-lactam MIC in the presence of BLI ([1]; avibactam 0.5 µg/ml): 16 µg/mL
- Beta-lactam MIC in the presence of BLI ([1]; avibactam 1 µg/ml): 4 µg/mL
- Beta-lactam MIC in the presence of BLI ([1]; avibactam 2 µg/ml): 4 µg/mL
- Beta-lactam MIC in the presence of BLI ([1]; avibactam 4 µg/ml): 2 µg/mL
- Beta-lactam MIC in the presence of BLI ([1]; avibactam 8 µg/ml): 1 µg/mL
- Beta-lactam MIC in the presence of BLI ([1]; avibactam 16 µg/ml): 0.5 µg/mL
- Beta-lactam MIC in the presence of BLI ([1]; vaborbactam 0 µg/ml): 32 µg/mL
- Beta-lactam MIC in the presence of BLI ([1]; vaborbactam 0.008 µg/ml): 32 µg/mL
- Beta-lactam MIC in the presence of BLI ([1]; vaborbactam 0.031 µg/ml): 32 µg/mL
- Beta-lactam MIC in the presence of BLI ([1]; vaborbactam 0.06 µg/ml): 32 µg/mL
- Beta-lactam MIC in the presence of BLI ([1]; vaborbactam 0.5 µg/ml): 8 µg/mL
- Beta-lactam MIC in the presence of BLI ([1]; vaborbactam 1 µg/ml): 1 µg/mL
- Beta-lactam MIC in the presence of BLI ([1]; vaborbactam 2 µg/ml): 0.5 µg/mL
- Antibiotic MIC with avibactam at 4 μg/ml ([2]; PAM4751 KPC-2::L169P, avibactam 4 μg/ml): 0.5 µg/mL
- Antibiotic MIC, No BLI ([2]; PAM4751 KPC-2::L169P, no BLI): 32 µg/mL
- Beta-lactam MIC in the presence of BLI ([2]; avibactam 0 µg/ml): 32 µg/mL
- Beta-lactam MIC in the presence of BLI ([2]; avibactam 0.008 µg/ml): 32 µg/mL
- Beta-lactam MIC in the presence of BLI ([2]; avibactam 0.031 µg/ml): 32 µg/mL
- Beta-lactam MIC in the presence of BLI ([2]; avibactam 0.06 µg/ml): 32 µg/mL
- Beta-lactam MIC in the presence of BLI ([2]; avibactam 0.5 µg/ml): 4 µg/mL
- Beta-lactam MIC in the presence of BLI ([2]; avibactam 1 µg/ml): 2 µg/mL
- Beta-lactam MIC in the presence of BLI ([2]; avibactam 2 µg/ml): 1 µg/mL
- Beta-lactam MIC in the presence of BLI ([2]; avibactam 4 µg/ml): 0.5 µg/mL
- Beta-lactam MIC in the presence of BLI ([2]; vaborbactam 0 µg/ml): 32 µg/mL
- Beta-lactam MIC in the presence of BLI ([2]; vaborbactam 0.008 µg/ml): 32 µg/mL
- Beta-lactam MIC in the presence of BLI ([2]; vaborbactam 0.031 µg/ml): 32 µg/mL
- Beta-lactam MIC in the presence of BLI ([2]; vaborbactam 0.06 µg/ml): 32 µg/mL
- Beta-lactam MIC in the presence of BLI ([2]; vaborbactam 0.5 µg/ml): 4 µg/mL
- Beta-lactam MIC in the presence of BLI ([2]; vaborbactam 1 µg/ml): 0.5 µg/mL
- Beta-lactam MIC in the presence of BLI ([3]; avibactam 0 µg/ml): 64 µg/mL
- Beta-lactam MIC in the presence of BLI ([3]; avibactam 0.008 µg/ml): 64 µg/mL
- Beta-lactam MIC in the presence of BLI ([3]; avibactam 0.031 µg/ml): 64 µg/mL
- Beta-lactam MIC in the presence of BLI ([3]; avibactam 0.06 µg/ml): 32 µg/mL
- Beta-lactam MIC in the presence of BLI ([3]; avibactam 0.5 µg/ml): 0.5 µg/mL
- Antibiotic MIC, No BLI ([3]; no BLI): 64 µg/mL
- Beta-lactam MIC in the presence of BLI ([3]; vaborbactam 0 µg/ml): 64 µg/mL
- Beta-lactam MIC in the presence of BLI ([3]; vaborbactam 0.008 µg/ml): 64 µg/mL
- Beta-lactam MIC in the presence of BLI ([3]; vaborbactam 0.031 µg/ml): 64 µg/mL
- Beta-lactam MIC in the presence of BLI ([3]; vaborbactam 0.06 µg/ml): 64 µg/mL
- Beta-lactam MIC in the presence of BLI ([3]; vaborbactam 0.5 µg/ml): 2 µg/mL
- MIC [4]: 256 µg/mL
- reduction of MIC vs wild-type KPC-2 strain ([5]; L169P strain): 4 fold
- MIC [5]: 64 µg/mL
- increase of MIC vs vector-only strain ([5]; {}): 512 fold
- reduction of MIC vs wild-type KPC-2 strain ([6]; D179Y strain): 4 fold
- MIC [6]: 64 µg/mL
- increase of MIC vs vector-only strain ([6]; {}): 512 fold
